# Assay results from PubChem BioAssay (NCI).
#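 The concentration for 50% growth inhibition is given as GI50. Definition used: TGI = concentration required for complete inhibition of growth.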
# What was measured:
# Assay in all cases: NCI-60 cell line screen, 384-well format
# [1] = system: 786-0 renal
# [2] = system: A498 renal
# [3] = system: A549 NSCLC
# [4] = system: ACHN renal
# [5] = system: BT-549 breast
# [6] = system: CAKI-1 renal
# [7] = system: CCRF-CEM leukemia
# [8] = system: DU-145 prostate
# [9] = system: EKVX NSCLC
# [10] = system: HCC-2998 colon
# [11] = system: HCT-116 colon
# [12] = system: HCT-15 colon
# [13] = system: HL-60(TB) leukemia
# [14] = system: HOP-62 NSCLC
# [15] = system: HOP-92 NSCLC
# [16] = system: HS 578T breast
# [17] = system: HT29 colon
# [18] = system: IGROV1 ovarian
# [19] = system: K-562 leukemia
# [20] = system: KM12 colon
# [21] = system: LOX IMVI melanoma
# [22] = system: M14 melanoma
# [23] = system: MALME-3M melanoma
# [24] = system: MCF7 breast
# [25] = system: MDA-MB-231 breast
# [26] = system: MDA-MB-435 melanoma
# [27] = system: MDA-MB-468 breast
# [28] = system: MOLT-4 leukemia
# [29] = system: NCI-H226 lung
compound,measurement,setting,value
CC(C)C[C@H](NC(=O)CNC(=O)c1cc(Cl)ccc1Cl)B(O)O,GI50,[1],0.0377 µM
same,TGI,[1],0.17 µM
same,GI50,[2],0.0714 µM
same,TGI,[2],1.31 µM
same,GI50,[3],0.13 µM
same,TGI,[3],1.68 µM
same,GI50,[4],0.0208 µM
same,TGI,[4],0.0712 µM
same,GI50,[5],0.0206 µM
same,TGI,[5],0.0363 µM
same,GI50,[6],0.0312 µM
same,TGI,[6],0.155 µM
same,GI50,[7],< 0.01 µM
same,GI50,[8],0.0467 µM
same,TGI,[8],0.457 µM
same,GI50,[9],0.083 µM
same,TGI,[9],0.396 µM
same,GI50,[10],0.0306 µM
same,TGI,[10],0.13 µM
same,GI50,[11],0.0175 µM
same,TGI,[11],0.034 µM
same,GI50,[12],0.0292 µM
same,TGI,[12],0.115 µM
same,GI50,[13],0.0109 µM
same,TGI,[13],0.023 µM
same,GI50,[14],0.0547 µM
same,TGI,[14],0.268 µM
same,GI50,[15],0.0275 µM
same,TGI,[15],0.0817 µM
same,GI50,[16],0.0209 µM
same,TGI,[16],0.0394 µM
same,GI50,[17],0.0198 µM
same,TGI,[17],0.0452 µM
same,GI50,[18],0.0802 µM
same,TGI,[18],0.59 µM
same,GI50,[19],0.0338 µM
same,TGI,[19],0.126 µM
same,GI50,[20],0.0507 µM
same,TGI,[20],0.165 µM
same,GI50,[21],0.0406 µM
same,TGI,[21],0.136 µM
same,GI50,[22],0.0171 µM
same,TGI,[22],0.0324 µM
same,GI50,[23],0.0169 µM
same,TGI,[23],0.035 µM
same,GI50,[24],0.0347 µM
same,TGI,[24],2.66 µM
same,GI50,[25],0.0293 µM
same,TGI,[25],0.0661 µM
same,GI50,[26],0.016 µM
same,TGI,[26],0.0302 µM
same,GI50,[27],0.0189 µM
same,TGI,[27],0.0387 µM
same,GI50,[28],< 0.01 µM
same,TGI,[28],0.0114 µM
same,GI50,[29],0.0111 µM
same,TGI,[29],0.0236 µM
